“Also recorded” adds a separate entry of the source. Where two headings read alike, the source gives them in different places.
Columns and labels:
CAMP [1] = assay: Induction of CAMP mRNA expression in U937 cells (QRT-PCR, RT-PCR, Northern blot); assay type: cell-based, human; details: for induction of CAMP (hCAP18) mRNA expression by Vitamin D3 analogs: U937, 1×10^−7 M, 12 and 24 hours
CAMP [2] = details: cultured keratinocytes or composite keratinocyte grafts; cited from earlier work
hCAP18 = details: colon epithelial cell lines; cited from earlier work
CAMP [3] = assay: Induction of CAMP mRNA in keratinocyte cell line HaCat (QRT-PCR); assay type: cell-based, human
From the text: The X-axis represents (CAMP(ng)/18S(ng)), +/−SD.

CRAMP [4] = assay: CRAMP in cultured bone marrow cells of C/EBPε-deficient or wild type mice (QRT-PCR); assay type: cell-based
Description: Primers against murine CAMP/CRAMP (forward, SEQ ID NO.: 7 and reverse, SEQ ID NO.: 8) (Table 3) were used at 200 nM per reaction.
The relative fold change between samples was determined using data normalized for 18S expression. Samples were analyzed in triplicate.

HNP3 (α-defensin) = assay: Induction of primary granule gene HNP3 in U937 cells (RT-PCR); details: U937, 1×10^−7 M, 24 h
CAMP [5] = assay: Induction of CAMP mRNA expression in NB4 cells (Northern blot)
LTF (lactoferrin) = assay: Induction of secondary granule gene LTF in U937 cells (RT-PCR); details: U937, 1×10^−7 M, 24 h
CD11b [6] = assay: Differentiation marker CD11b mRNA in U937 cells (Northern blot); details: for macrophage-like differentiation (induction of CD11b): U937, 1,25[OH]2D3 1×10^−7 M or TPA 5 ng/ml, 1, 3 or 5 days
From the text: Total RNA at each time point was isolated and electrophoresed, then transferred to a charged membrane for Northern analysis.
Total RNA was extracted and analyzed by Northern blot.

CAMP [7] = details: primary human keratinocytes; cited from earlier work
CRAMP [8] = assay: CRAMP expression in bone marrow of treated BNX mice (Northern blot); details: intraperitoneal, 0.05 μg/mouse every two days for 6 weeks
CAMP [9] = assay: Induction of CAMP mRNA expression in HL60 cells (Northern blot)
CD11b [10] = assay: Differentiation marker CD11b mRNA in HL60 cells (Northern blot); assay type: cell-based, human; details: HL-60; 1,25[OH]2D3 1×10^−7 M or TPA 5 ng/ml; 1, 3 or 5 days
[11] = U937, initial screen, 24 h, QRT-PCR and Northern blot

Molecule: INFγ: inflammatory factor
- induction of CAMP expression (CAMP [1]; [11]): only 1,25(OH)2D3 induced CAMP expression significantly
- induction of CAMP expression (CAMP [2]): did not
- induction of hCAP18 expression (hCAP18): not by pro-inflammatory mediators

Molecule: C=C1/C(=C\C=C2/CCC[C@]3(C)[C@@H]([C@@H](C)OCCCC(O)(CC)CC)CC[C@@H]23)C[C@@H](O)C[C@@H]1O [KH1060, 20-epi-22oxa-24a,26a,27a-tri-homo-1,25(OH)2D3]
- induction of CAMP (hCAP18) mRNA expression by Vitamin D3 analogs (CAMP [1]; Northern blot): strongly induced CAMP gene expression; also recorded: Induction of hCAP18 mRNA expression was observed; also recorded: Induction of CAMP mRNA expression was observed

Molecule: C=C1/C(=C\C=C2/CCC[C@]3(C)[C@@H]([C@H](C)CCCC(C)(C)O)CC[C@@H]23)C[C@@H](O)C[C@@H]1O [1,25(OH)2D3, 1,25-dihydroxyvitamin D3]
- induction of CAMP mRNA compared with myeloid cells (CAMP [3]): not as robust as that observed in the myeloid cells; also recorded: less striking
- induction of CAMP mRNA (CAMP [3]; 1×10^−7 M, 24 hours, QRT-PCR): Induction of CAMP mRNA was observed
- induction of CRAMP (CRAMP [4]; C/EBPε-deficient or wild type bone marrow cells cultured in vitro, 24 h): CRAMP induction was not observed
- decrease of CRAMP (CRAMP [4]; bone marrow cells, 24 h post-treatment (FIG. 14B)): approximately 2 fold
- induction of HNP3 (HNP3 (α-defensin)): No induction of these genes was observed
- induction of CAMP expression (CAMP [5]; NB4, 1×10^−6 M to 1×10^−9 M, 24 h, Northern blot (FIG. 3)): induction was observed; also recorded: induced expression of CAMP was observed
- induction of CAMP expression (CAMP [5]; NB4, 1×10^−6 M to 1×10^−9 M, 24 h, Northern blot (FIG. 3), listed as Vitamin D3): Moderate induction
- induction of LTF (LTF (lactoferrin)): No induction of these genes was observed
- time of induction of the differentiation marker CD11b (CD11b [6]; U937, 1×10^−7 M, time course 1-24 hours): 12 h
- macrophage-like differentiation (induction of CD11b) (CD11b [6]): promoted macrophage-like differentiation

Molecule: insulin-like growth factor (IGF)-1: growth factor that is important in wound healing
- induction of CAMP mRNA and protein (CAMP [7]): induce both the CAMP mRNA and protein

Molecule: GM-CSF: growth factor
- induction of CAMP expression (CAMP [1]; [11]): only 1,25(OH)2D3 induced CAMP expression significantly

Molecule: TNFα
- induction of CAMP expression (CAMP [1]; [11]): only 1,25(OH)2D3 induced CAMP expression significantly
- induction of CAMP expression (CAMP [2]): did not
- induction of hCAP18 expression (hCAP18): not by pro-inflammatory mediators

Molecule: CCCCCCCCCCCCCC(=O)O[C@@H]1[C@@H](C)[C@@]2(O)[C@@H](C=C(CO)C[C@]3(O)C(=O)C(C)=C[C@@H]23)[C@@H]2C(C)(C)[C@]12OC(C)=O [PMA]
- induction of hCAP18 expression (hCAP18): not by pro-inflammatory mediators

Molecule: C[C@@H]1C[C@@H]([C@H](O)CC2CC(=O)NC(=O)C2)C(=O)[C@@H](C)C1 [CHX, cyclohexamide]
- induction of CAMP gene expression by CHX alone (CAMP [1]; U937, data not shown): did not induce CAMP gene expression

Molecule: C[C@]12CCC(=O)C[C@@H]1CC[C@@H]1[C@@H]2CC[C@]2(C)[C@@H](O)CC[C@@H]12 [DHT, dihydrotestosterone]
- induction of CAMP expression (CAMP [1]): only 1,25(OH)2D3 induced CAMP expression significantly

Molecule: C=C1/C(=C\C=C2/CCC[C@]3(C)[C@@H]([C@H](C)/C=C/C=C/C(O)(CC)CC)CC[C@@H]23)C[C@@H](O)C[C@@H]1O [EB1089, 1,25-dihydroxy-22,24-diene, 24,26,27-trihomo]
- induction of CAMP (hCAP18) mRNA expression by Vitamin D3 analogs (CAMP [1]; Northern blot): strongly induced CAMP gene expression
- induction of CAMP (hCAP18) mRNA expression by Vitamin D3 analogs (CAMP [1]; Northern blot, listed as EB 1089): Induction of hCAP18 mRNA expression was observed; also recorded: Induction of CAMP mRNA expression was observed

Molecule: C=C1/C(=C\C=C2/CCC[C@]3(C)[C@@H]([C@H](C)/C=C/C[C@@](C)(O)CO)CC[C@@H]23)C[C@@H](O)C[C@@H]1O [compound I, 1,25R,26-(OH)3-22-ene-D3]
- induction of CAMP (hCAP18) mRNA expression by Vitamin D3 analogs (CAMP [1]; Northern blot): strongly induced CAMP gene expression; also recorded: Induction of hCAP18 mRNA expression was observed; also recorded: Induction of CAMP mRNA expression was observed
- CRAMP expression in bone marrow compared with a vehicle-treated mouse (CRAMP [8]): did not significantly alter CRAMP expression

Molecule: IL-6: cytokine
- induction of CAMP expression (CAMP [1]; [11]): only 1,25(OH)2D3 induced CAMP expression significantly
- induction of CAMP expression (CAMP [2]): did not
- induction of hCAP18 expression (hCAP18): not by pro-inflammatory mediators

Molecule: IL-1β: proinflammatory cytokine
- induction of CAMP expression (CAMP [2]): induced CAMP expression

Molecule: CC1=C(/C=C/C(C)=C/C=C/C(C)=C/C(=O)O)C(C)(C)CCC1 [ATRA, all trans retinoic acid]
- induction of CAMP expression (CAMP [1]; U937, 5×10^−7 M, 1-5 days): No induction was observed
- induction of CAMP expression (CAMP [1]; [11]): only 1,25(OH)2D3 induced CAMP expression significantly
- induction of CAMP expression (CAMP [5]; NB4, 5×10^−7 M, 1-5 days): No induction was observed
- induction of CAMP expression (CAMP [9]; HL60, 5×10^−7 M, 1-5 days): No induction was observed

Molecule: CCCCCCCCCCCCCC(=O)O[C@@H]1[C@@H](C)[C@@]2(O)[C@@H](C=C(CO)C[C@]3(O)C(=O)C(C)=C[C@@H]23)[C@@H]2C(C)(C)[C@]12OC(C)=O [TPA]
- induction of CAMP expression (CAMP [1]; [11]): only 1,25(OH)2D3 induced CAMP expression significantly
- induction of CAMP mRNA (CAMP [1]; U937, 1,25[OH]2D3 1×10^−7 M or TPA 5 ng/ml, 1, 3 or 5 days, Northern blot): not TPA
- macrophage-like differentiation (induction of CD11b) (CD11b [10]): promoted macrophage-like differentiation
- induction of CAMP mRNA (CAMP [9]; HL-60, 1,25[OH]2D3 1×10^−7 M or TPA 5 ng/ml, 1, 3 or 5 days, Northern blot): not TPA
- macrophage-like differentiation (induction of CD11b) (CD11b [6]): promoted macrophage-like differentiation

Molecule: IL-8: cytokine
- induction of CAMP expression (CAMP [2]): did not

B1: IL-10: cytokine (protein, UniProt P22301 19-178, looked up)
Interleukin-10: SPGQGTQSENSCTHFPGNLPNMLRDLRDAFSRVKTFFQMKDQLDNLLLKESLLEDFKGYLGCQALSEMIQFYLEEVMPQAENQDPDIKAHVNSLGENLKTLRLRLRRCHRFLPCENKSKAVEQVKNAFNKLQEKGIYKAMSEFDIFINYIEAYMTMKIRN
- induction of CAMP expression (CAMP [2]): did not

B2: G-CSF: growth factor (protein, UniProt P09919 31-207, looked up)
Granulocyte …: TPLGPASSLPQSFLLKCLEQVRKIQGDGAALQEKLVSECATYKLCHPEELVLLGHSLGIPWAPLSSCPSQALQLAGCLSQLHSGLFLYQGLLQALEGISPELGPTLDTLQLDVADFATTIWQQMEELGMAPALQPTQGAMPAFASAFQRRAGGVLVASHLQSFLEVSYRVLRHLAQP
- induction of CAMP expression (CAMP [1]; [11]): only 1,25(OH)2D3 induced CAMP expression significantly

B3: I1-4: cytokine, probably IL-4 (protein, UniProt P05112 25-153, looked up)
Interleukin-4: HKCDITLQEIIKTLNSLTEQKTLCTELTVTDIFAASKNTTEKETFCRAATVLRQFYSHHEKDTRCLGATAQQFHRHKQLIRFLKRLDRNLWGLAGLNSCPVKEANQSTLENFLERLKTIMREKYSKCSS
- induction of CAMP expression (CAMP [2]): did not

B4: IL-1α: pro-inflammatory mediator (protein, UniProt P01583 113-271, looked up)
Interleukin-1 alpha: SAPFSFLSNVKYNFMRIIKYEFILNDALNQSIIRANDQYLTAAALHNLDEAVKFDMGAYKSSKDDAKITVILRISKTQLYVTAQDEDQPVLLKEMPEIPKTITGSETNLLFFWETHGTKNYFTSVAHPNLFIATKQDYWVCLAGGPPSITDFQILENQA
- induction of hCAP18 expression (hCAP18): not by pro-inflammatory mediators
